The values below come from ChEMBL document CHEMBL1671789, “Evaluation of quinazoline analogues as glucocerebrosidase inhibitors with chaperone activity” (J Med Chem, 2011).

A short description of experiment [1]: Inhibition of alpha-glucosidase.
The nature of experiment [2]: Inhibition of alpha-galactosidase.

Active and inactive are the calls of the source. No rule for the calls is given here.
Also: test concentration or dose not given here.

Take `CC(=O)c1cccc(S(=O)(=O)N2CCN(c3nc(-c4cccs4)nc4ccccc34)CC2)c1`: the result in experiment [1] and in experiment [2] was inactive.

Take `Cc1ccc(S(=O)(=O)N2CCN(c3cc(-c4cccs4)nc4ccccc34)CC2)cc1`: the outcome in experiment [1] and in experiment [2] was inactive.

For the compound `Cc1ccc(S(=O)(=O)N2CCN(c3nc(-c4ncco4)nc4ccccc34)CC2)cc1`, the outcome in experiment [1] and in experiment [2] was inactive.

`CCOC(=O)c1ccc(S(=O)(=O)N2CCN(c3nc(-c4cccs4)nc4ccccc34)CC2)cc1`: the outcome in experiment [1] and in experiment [2] was inactive.

In the case of `N#Cc1ccccc1S(=O)(=O)N1CCN(c2nc(-c3ccccc3)nc3ccccc23)CC1`, the outcome in experiment [1] and in experiment [2] was inactive.

In the case of `Cc1ccc(S(=O)(=O)N2CCN(c3nc(-c4cccnc4)nc4ccccc34)CC2)cc1`, the result in experiment [1] and in experiment [2] was inactive.

In the case of `O=S(=O)(c1ccc(Cl)cc1)N1CCN(c2nc(-c3ccccc3)nc3ccccc23)CC1`, the result in experiment [1] and in experiment [2] was inactive.

With `Cc1ccc(S(=O)(=O)N2CCN(c3nc(-c4cccs4)nc(C)c3C)CC2)cc1`, the outcome in experiment [1] and in experiment [2] was inactive.

As for `O=S(=O)(c1ccc(F)cc1)N1CCN(c2nc(-c3cccs3)nc3ccccc23)CC1`, the result in experiment [1] and in experiment [2] was inactive.

Take `O=S(=O)(c1cc(Cl)cc(Cl)c1)N1CCN(c2nc(-c3cccs3)nc3ccccc23)CC1`: the outcome in experiment [1] and in experiment [2] was inactive.

For the compound `O=C(c1ccc2c(c1)OCCO2)N1CCN(c2nc(-c3cccs3)nc3ccccc23)CC1`, the result in experiment [1] and in experiment [2] was inactive.

With `O=S(=O)(c1cccnc1)N1CCN(c2nc(-c3cccs3)nc3ccccc23)CC1`, the outcome in experiment [1] and in experiment [2] was inactive.

As to `Cc1ccc(S(=O)(=O)N2CCN(c3nc(-c4cccs4)nc4ccccc34)CC2)c(C)c1`, the outcome in experiment [1] and in experiment [2] was inactive.

Turning to `CCOC(=O)c1ccc(S(=O)(=O)N2CCN(c3nc(-c4ccccc4)nc4ccccc34)CC2)cc1`, the result in experiment [1] and in experiment [2] was inactive.

For `Cc1ccc(S(=O)(=O)N2CCN(c3nc(-c4cccs4)nc4cccnc34)CC2)cc1`, the result in experiment [1] and in experiment [2] was inactive.

`N#Cc1ccc(S(=O)(=O)N2CCN(c3nc(-c4ccccc4)nc4ccccc34)CC2)cc1`: the result in experiment [1] and in experiment [2] was inactive.

Consider `O=S(=O)(c1cccc(Cl)c1)N1CCN(c2nc(-c3ccccc3)nc3ccccc23)CC1`, for which the result in experiment [1] and in experiment [2] was inactive.

For `NS(=O)(=O)c1ccc(S(=O)(=O)N2CCN(c3nc(-c4cccs4)nc4ccccc34)CC2)cc1`, the result in experiment [1] and in experiment [2] was inactive.

Regarding `CC(=O)N1CCN(c2nc(-c3cccs3)nc3ccccc23)CC1`, the outcome in experiment [1] and in experiment [2] was inactive.

With `O=S(=O)(c1ccc(C(F)(F)F)cc1)N1CCN(c2nc(-c3ccccc3)nc3ccccc23)CC1`, the outcome in experiment [1] and in experiment [2] was inactive.

Turning to `O=S(=O)(c1ccccc1C(F)(F)F)N1CCN(c2nc(-c3cccs3)nc3ccccc23)CC1`, the outcome in experiment [1] and in experiment [2] was inactive.

As for `Cc1ccc(S(=O)(=O)N2CCCN(c3nc(-c4cccs4)nc4ccccc34)CC2)cc1`, the result in experiment [1] and in experiment [2] was inactive.

Regarding `O=[N+]([O-])c1ccc(S(=O)(=O)N2CCN(c3nc(-c4cccs4)nc4ccccc34)CC2)cc1`, the outcome in experiment [1] and in experiment [2] was inactive.

In the case of `O=S(=O)(c1ccccc1)N1CCN(c2nc(-c3cccs3)nc3ccccc23)CC1`, the result in experiment [1] and in experiment [2] was inactive.

`CCOc1ccc(S(=O)(=O)N2CCN(c3nc(-c4ccccc4)nc4ccccc34)CC2)cc1OCC`: the outcome in experiment [1] and in experiment [2] was inactive.

For the compound `Cc1ccc(S(=O)(=O)N(C)CCN(C)c2nc(-c3cccs3)nc3ccccc23)cc1`, the result in experiment [1] and in experiment [2] was inactive.

As for `O=S(=O)(c1ccc2c(c1)OCCO2)N1CCN(c2nc(-c3cccnc3)nc3ccccc23)CC1`, the result in experiment [1] and in experiment [2] was inactive.

On to `O=S(=O)(/C=C/c1ccccc1)N1CCN(c2nc(-c3cccnc3)nc3ccccc23)CC1`, for which the result in experiment [1] and in experiment [2] was inactive.

Consider `O=S(=O)(c1ccc2ncccc2c1)N1CCN(c2nc(-c3cccs3)nc3ccccc23)CC1`, for which the outcome in experiment [1] and in experiment [2] was inactive.

As to `Cc1cccc(S(=O)(=O)N2CCN(c3nc(-c4cccs4)nc4ccccc34)CC2)c1`, the result in experiment [1] and in experiment [2] was inactive.

In the case of `Fc1ccccc1N1CCN(c2nc(-c3cccs3)nc3ccccc23)CC1`, the outcome in experiment [1] and in experiment [2] was inactive.

In the case of `Cc1ccccc1S(=O)(=O)N1CCN(c2nc(-c3cccs3)nc3ccccc23)CC1`, the result in experiment [1] and in experiment [2] was inactive.

Turning to `N#Cc1ccccc1S(=O)(=O)N1CCN(c2nc(-c3cccs3)nc3ccccc23)CC1`, the outcome in experiment [1] and in experiment [2] was inactive.

Regarding `Cc1ccc(S(=O)(=O)N2CCN(c3nc(-c4ccc(C)s4)nc4ccccc34)CC2)cc1`, the result in experiment [1] and in experiment [2] was inactive.

Turning to `Cc1ccc(S(=O)(=O)N2CCN(c3nc(-c4cccs4)nc4ncccc34)CC2)cc1`, the outcome in experiment [1] and in experiment [2] was inactive.

In the case of `Cc1ccc(S(=O)(=O)N2CCN(c3nc(-c4cncs4)nc4ccccc34)CC2)cc1`, the result in experiment [1] and in experiment [2] was inactive.

Consider `CN1CCOc2cc(S(=O)(=O)N3CCN(c4nc(-c5cccs5)nc5ccccc45)CC3)ccc21`, for which the result in experiment [1] and in experiment [2] was inactive.

As to `O=S(=O)(c1cccc(C(F)(F)F)c1)N1CCN(c2nc(-c3cccs3)nc3ccccc23)CC1`, the outcome in experiment [1] and in experiment [2] was inactive.

On to `O=S(=O)(c1cnc2ccccc2c1)N1CCN(c2nc(-c3cccs3)nc3ccccc23)CC1`, for which the result in experiment [1] and in experiment [2] was inactive.

With `O=[N+]([O-])c1cccc(S(=O)(=O)N2CCN(c3nc(-c4ccccc4)nc4ccccc34)CC2)c1`, the outcome in experiment [1] and in experiment [2] was inactive.

Consider `CC(C)S(=O)(=O)N1CCN(c2nc(-c3cccs3)nc3ccccc23)CC1`, for which the outcome in experiment [1] and in experiment [2] was inactive.

`O=[N+]([O-])c1ccccc1S(=O)(=O)N1CCN(c2nc(-c3ccccc3)nc3ccccc23)CC1`: the result in experiment [1] and in experiment [2] was inactive.

As to `CC(C)(C)c1ccc(S(=O)(=O)N2CCN(c3nc(-c4cccs4)nc4ccccc34)CC2)cc1`, the outcome in experiment [1] and in experiment [2] was inactive.

On to `O=S(=O)(Cc1ccccc1)N1CCN(c2nc(-c3cccs3)nc3ccccc23)CC1`, for which the result in experiment [1] and in experiment [2] was inactive.

In the case of `CC(=O)c1nc(N2CCN(S(=O)(=O)c3ccc(C)cc3)CC2)c2ccccc2n1`, the result in experiment [1] and in experiment [2] was inactive.

In the case of `O=S(=O)(c1ccccc1Br)N1CCN(c2nc(-c3cccs3)nc3ccccc23)CC1`, the outcome in experiment [1] and in experiment [2] was inactive.

Regarding `O=S(=O)(c1ccccc1Br)N1CCN(c2nc(-c3ccccc3)nc3ccccc23)CC1`, the outcome in experiment [1] and in experiment [2] was inactive.

As to `O=S(=O)(c1ccc2c(Cl)cccc2c1)N1CCN(c2nc(-c3cccs3)nc3ccccc23)CC1`, the result in experiment [1] and in experiment [2] was inactive.

On to `CC(=O)c1ccc(S(=O)(=O)N2CCN(c3nc(-c4cccs4)nc4ccccc34)CC2)cc1`, for which the outcome in experiment [1] and in experiment [2] was inactive.

On to `O=S(=O)(c1ccc2c(c1)CCCC2)N1CCN(c2nc(-c3ccccc3)nc3ccccc23)CC1`, for which the result in experiment [1] and in experiment [2] was inactive.

Take `O=[N+]([O-])c1ccc(S(=O)(=O)N2CCN(c3nc(-c4ccccc4)nc4ccccc34)CC2)cc1`: the result in experiment [1] and in experiment [2] was inactive.

On to `O=S(=O)(c1cccc(Cl)c1)N1CCN(c2nc(-c3cccs3)nc3ccccc23)CC1`, for which the result in experiment [1] and in experiment [2] was inactive.

Take `COc1ccc(S(=O)(=O)N2CCN(c3nc(-c4cccs4)nc4ccccc34)CC2)cc1OC`: the result in experiment [1] and in experiment [2] was inactive.

For `O=S(=O)(c1ccccc1Cl)N1CCN(c2nc(-c3ccccc3)nc3ccccc23)CC1`, the outcome in experiment [1] and in experiment [2] was inactive.

Regarding `O=S(=O)(c1cccc(C(F)(F)F)c1)N1CCN(c2nc(-c3ccccc3)nc3ccccc23)CC1`, the result in experiment [1] and in experiment [2] was inactive.

Take `N#Cc1ccc(S(=O)(=O)N2CCN(c3nc(-c4cccs4)nc4ccccc34)CC2)cc1`: the outcome in experiment [1] and in experiment [2] was inactive.

Take `Cc1ccc(S(=O)(=O)N2CCN(c3nc(-c4ccoc4)nc4ccccc34)CC2)cc1`: the outcome in experiment [1] and in experiment [2] was inactive.

Turning to `O=S(=O)(c1ccccc1Cl)N1CCN(c2nc(-c3cccs3)nc3ccccc23)CC1`, the result in experiment [1] and in experiment [2] was inactive.
